Like-named read-outs stand apart in the source and are kept apart here.
Assays:
[1] = system: H1299 human NSCLC cells; experiment: Clonogenic cell survival after radiation, H1299 cells; assay type: cell-based; details: for Genistein (D0): 5 μM nanoparticulate genistein 24 hours before radiation; for DMF (Dose Modifying Factor): 5 μM nanoparticulate genistein vs vehicle
Description: (§1) In the experiments described herein, a R10.5M5 double scattered proton beam (a proton beam with a maximum range of 10.5 cm where the SOBP comprises the final 5 cm) was utilized with precise positioning of culture dishes at specific points at the entrance, middle, and end of the SOBP. For this beam, the “low LET” was at 2 cm depth, corresponding to about 4 keV/μM, and the high LET was at 10 cm depth, corresponding to about 30 keV/μM. As used herein, the term “low LET” refers to about one to about ten (e.g., about one to three, two to four, three to five, four to six, five to seven, six to eight, seven to nine, or eight to ten) keV/μM unrestricted LET as determined from tables of proton stopping power in liquid water, available from the National Institute of Standards and Technology (stopping power and range tables for protons; “PSTAR”). The term “high-LET” refers to about 20 to 40 (e.g., 20 to 25, 25 to 30, 30 to 35, or 35 to 40) keV/μM, again as determined from PSTAR unrestricted LET tables.
Studies were conducted to determine whether a nanoparticulate genistein formulation affects cellular radiosensitivity to protons with increasing LET. Normal and cancer cell lines were exposed to low, intermediate, or high LET proton radiation. These experiments used the H1299 and H460 NSCLC cell lines, which are relevant to lung cancer research during medical radiation exposure as well as nonmedical or accidental radiation exposure. These cell lines were derived from human cancer patients and have well-known radiobiologic properties, with H1299 being relatively less radiosensitive. Both lines harbor Ras pathway activating mutations (H460, KRAS; H1299, NRAS). MRC5 human lung fibroblasts also were used as representative normal cells. Each cell line was obtained from the American Type Culture Collection (ATCC) and tested for mycoplasma regularly. Clonogenic cell survival studies were performed as described elsewhere (Cengel et al., Neoplasia 9(4):341-348, 2007). Briefly, cells were plated 24 hours prior to radiation at about 50% confluence. […] Cells were radμated using either 250 KVp x-rays or protons with lower vs. higher LET. To vary the proton LET, cell dishes were placed at a depth of 2 cm (D2, low LET) or 10 cm (D10, high LET) in a R10.5M5 double scattered proton beam—a double scattered proton beam with a maximum range of 10.5 cm and a modulated depth of 5 cm, meaning that the Spread-out Bragg peak (SOBP) began roughly at a depth of 5.5 cm. In this configuration, the D2 and D10 positions corresponded to the entrance and terminal portions of the SOBP, respectively. After exposure to radiation, cells were trypsinized into a single cell suspension and re-plated at various densities without nanoparticulate genistein. About two weeks later (typically 13 to 16 days, depending on colony size), plates were rinsed and stained using crystal violet/ethanol, and colonies were enumerated using an Oxford Optronix automated colony counter with a minimum threshold size of 50 cells to define a colony. […]
(§2) Relative radiosensitivity was numerically compared using a standard variable, D0 (the dose of radiation needed to reduce the surviving fraction by a factor of 1/e), which was determined from the positive solution to the quadratic equation of the form: βD^2+αD−1=0, where α and β are determined from the LQ survival curve fit as above. The Dose Modifying Factor (DMF) was determined by the quotient: […]

[2] = canines; compared to formulations containing non-micronized genistein; cited from earlier work
[3] = system: H460 human non-small cell lung cancer (NSCLC) cells; experiment: Clonogenic cell survival after radiation, H460 cells; assay type: cell-based; details: for Genistein (D0): 5 μM nanoparticulate genistein 24 hours before radiation; for DMF (Dose Modifying Factor): 5 μM nanoparticulate genistein vs vehicle, radiosensitization defined as DMF>1.1
Description: as §1
(§3) Studies were conducted to determine whether a nanoparticulate genistein formulation affects cellular radiosensitivity to protons with increasing LET. Normal and cancer cell lines were exposed to low, intermediate, or high LET proton radiation. These experiments used the H1299 and H460 NSCLC cell lines, which are relevant to lung cancer research during medical radiation exposure as well as nonmedical or accidental radiation exposure. These cell lines were derived from human cancer patients and have well-known radiobiologic properties, with H1299 being relatively less radiosensitive. Both lines harbor Ras pathway activating mutations (H460, KRAS; H1299, NRAS). MRC5 human lung fibroblasts also were used as representative normal cells. Each cell line was obtained from the American Type Culture Collection (ATCC) and tested for mycoplasma regularly. Clonogenic cell survival studies were performed as described elsewhere (Cengel et al., Neoplasia 9(4):341-348, 2007). Briefly, cells were plated 24 hours prior to radiation at about 50% confluence. […] Cells were radμated using either 250 KVp x-rays or protons with lower vs. higher LET. […]
as §2

[4] = humans; compared to formulations containing non-micronized genistein; cited from earlier work
[5] = mice; compared to formulations containing non-micronized genistein; cited from earlier work
[6] = system: MRC5 normal human lung fibroblasts; experiment: Clonogenic cell survival after radiation, MRC5 cells; assay type: cell-based; details: for Genistein (D0): 5 μM nanoparticulate genistein 24 hours before radiation; for DMF (Dose Modifying Factor): 5 μM nanoparticulate genistein vs vehicle
Description: as §1, §3, §2

[7] = High LET Protons (D10, 10 cm depth)

O=c1c(-c2ccc(O)cc2)coc2cc(O)cc(O)c12 [Genistein, 5,7-dihydroxy-3-(4-hydroxyphenyl)-chromen-4-one]
Genistein (D0) [1, 7]: 3.03
DMF (Dose Modifying Factor) ([1]; High LET Protons, radiosensitization defined as DMF>1.1): 1.35
Genistein (D0) ([1]; X-Rays (250 KVp)): 4.28
DMF (Dose Modifying Factor) ([1]; X-Rays, radiosensitization defined as DMF>1.1): 0.97
DMF (Dose Modifying Factor) ([1]; lower LET protons (D2, 2 cm depth)): 1.09
oral bioavailability [2]: increased oral bioavailability
Genistein (D0) [3, 7]: 2.23
DMF (Dose Modifying Factor) ([3]; High LET Protons): 1.04
Genistein (D0) ([3]; X-Rays (250 KVp), D0 = dose reducing surviving fraction by 1/e): 2.41
DMF (Dose Modifying Factor) ([3]; X-Rays): 1.07
oral bioavailability [4]: increased oral bioavailability
oral bioavailability [5]: increased oral bioavailability
Genistein (D0) [6, 7]: 1.26
DMF (Dose Modifying Factor) ([6]; High LET Protons): 1.07
Genistein (D0) ([6]; X-Rays (250 KVp)): 1.38
DMF (Dose Modifying Factor) ([6]; X-Rays): 1.01

Source: patent publication US12403195B2, “Sensitizing cells to proton radiation” (Humanetics Corporation, priority 2017, dated 2025)
